Values quoted from earlier work, collected in US20220119489A1, “COMPOSITIONS AND METHODS FOR TREATING MUSCULAR DYSTROPHY AND RELATED DISORDERS” (CHILDREN'S MEDICAL CENTER CORPORATION, priority 2019, published 2022).

Tests used:
[1] = test system: CD82; settings: stated as previously shown, no test described
[2] = test system: CD82; settings: Pompe disease patients under treatment

Row | Compound | expression of CD82 [1] | increase of muscle CD82 expression compared to baseline levels [2]
1 | C[C@]12COC(=O)C[C@@H]1CC[C@@H]1[C@@H]2CC[C@@]2(C)[C@H]1CC[C@]2(C)O [oxandrolone] | increase expression of CD82 | 
2 | CC(=O)C(=O)[O-].[Na+] [sodium pyruvate] | increase expression of CD82 | 
3 | recombinant human lysosomal acid alpha glucosidase: recombinant enzyme used to treat Pompe disease patients |  | 25-50%
